We go through 83 molecules from PubChem BioAssay AID463206 (Broad Institute, 2010).

Calls of active or inactive are those of the source.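 How the source made its calls: active means caspase luminescence falls with dose and the half-maximal concentration AC50 from the fitted curve is at or below a set limit; inconclusive means flat fit at 30 to 70% signal loss, or invalid fit; inactive means AC50 above the limit, or signal rises instead.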 Some results are limits rather than exact numbers.

The assay relates to INS-1E cytokine-induced caspase-3/7, Caspase-Glo luminescence, 48 h. As to the kind of experiment: suppression of cytokine-driven beta-cell apoptosis – INS-1E rat cells, luminescence, orthogonal assay for beta-cell apoptosis protection project, dose response (AID 463206).
Regarding `Oc1c(Br)cc(Br)cc1/C=N/Nc1ccc(Cl)nn1`, the AC50 is > 26 µM (inactive).

With `COc1ccc(Cn2c(-c3ccc(C)cc3)c[n+]3ccccc23)cc1`, the AC50 is > 26 µM (inactive). Next, `COc1ccc(-c2nn(-c3ccccc3)cc2/C=N/N2C(=O)CSC2=S)cc1`: > 26 µM (inactive); `CC(=O)Nc1ccccc1OCC(=O)c1cc(C)n(Cc2cccs2)c1C`: > 26 µM (inactive); `COc1ccc(C2C(O)C(c3c[nH]c4ccccc34)=NN2C(=O)CCl)cc1` (stereo not drawn): > 26 µM (inactive).

As to `Cc1ccc(N=Nc2c(O)ccc3n[nH]nc23)cc1`, the AC50 was > 26 µM (inactive). As for `COc1ccc(/C=N/N2CCN(Cc3ccccc3)CC2)cc1`, the AC50 was > 26 µM (inactive). Turning to `Cc1nc(Nc2ccc(Cl)c(Cl)c2)sc1C(=O)Nc1ccccc1`, the AC50 is > 26 µM (inactive). For the molecule `Oc1cc(-c2ccc(N3CCCCC3)nc2)cc2cccnc12`, the AC50 is > 26 µM (inactive).

With `CCCCCCCCCCn1c2c(c(=N)c3c1CCC3)CCC2`, the AC50 was > 26 µM (inactive).

With `O=C(Nc1cc(Sc2ccccn2)cc([N+](=O)[O-])c1)c1cccc(F)c1`, the AC50 is > 26 µM (inactive).

On to `CCO[C@H]1OC(C(=O)N2CCN(Cc3ccc4c(c3)OCO4)CC2)=C[C@@H](c2csc3ccccc23)[C@@H]1CCCO`, for which the AC50 was > 26 µM (inactive). As to `O=[N+]([O-])c1cccc(/C=N/n2cnnc2)c1`, the AC50 is > 26 µM (inactive).

For `O=c1c2ccccc2nc(COc2ccccc2)n1/N=C/c1cc([N+](=O)[O-])ccc1O`, the AC50 was > 26 µM (inactive). The figure for `C=C[C@H](Cc1ccccc1)N(Cc1ccccc1)S(=O)(=O)N(Cc1ccccc1)[C@H](C=C)Cc1ccccc1` is > 26 µM (inactive).

Take `CCOc1cc(CNCCc2ccc(S(N)(=O)=O)cc2)ccc1OCc1ccc(Cl)cc1`: the AC50 is > 26 µM (inactive).

`C/C(=N\N1C(=O)c2ccccc2NC1c1ccco1)c1ccccc1O` (stereo not drawn): the AC50 is > 26 µM (inactive).

For `Cc1ccc(NC(=S)N/N=C/c2ccc([N+](=O)[O-])s2)cc1`, the AC50 is > 26 µM (inactive).

In the case of `COc1ccc(/C=C/C(=O)c2ccc([N+](=O)[O-])o2)cc1OC`, the AC50 was > 26 µM (inactive).

As for `CCS(=O)(=O)c1ncc(Cl)c(C(=O)Nc2ccc(S(=O)(=O)N3CCC(C)CC3)cc2)n1`, the AC50 is > 26 µM (inactive). `c1ccc(CSc2ccc(-c3ccccn3)nn2)cc1`: the AC50 is > 26 µM (inactive). `O=C(CCC(=O)Nc1ccc(Br)cc1)N/N=C/c1ccccc1O`: the AC50 was > 26 µM (inactive).

With `CCN(CC)c1ccc(CNc2nc3ccccc3n2CCN2CCCCC2)cc1`, the AC50 is > 26 µM (inactive). On to `C=CCc1cccc(/C=N/NC(=O)CCC(=O)Nc2ccc(F)cc2)c1O`, for which the AC50 was > 26 µM (inactive). With `CCC1(c2ccc(F)cc2)NC(=O)N(CC(=O)Nc2ccc(-c3nc4ccc(C)cc4s3)cc2)C1=O` (stereo not drawn), the AC50 is > 26 µM (inactive). In the case of `CCc1ccc2[nH]c3nc(N/N=C/c4ccc(O)cc4O)nnc3c2c1`, the AC50 was > 12 µM (inactive). Next, `Brc1ccc(CN2CCN(Cc3c[nH]c4ccccc34)CC2)cc1`: > 26 µM (inactive); `Cc1ccc(-c2c[n+](Cc3ccc(Cl)cc3)c3n2CCC3)cc1`: > 26 µM (inactive); `Cc1cc(C)cc(Oc2cc(NC(=O)c3cn(C)nc3C)cc([N+](=O)[O-])c2)c1`: > 26 µM (inactive). On to `CC(=O)c1c(C)[nH]c(C(=O)OCc2cccc(Cl)c2)c1C`, for which the AC50 was > 12 µM (inactive). On to `O=C(NC(NC(=S)Nc1ccc(Cl)cc1Cl)C(Cl)(Cl)Cl)c1cccc([N+](=O)[O-])c1` (stereo not drawn), for which the AC50 was > 26 µM (inactive). The figure for `Cc1c(C(=O)N(Cc2ccccc2)C(C)C)oc2ccc(S(=O)(=O)N3CCOCC3)cc12` is > 26 µM (inactive); for `CCc1ccc(OC)c(S(=O)(=O)Nc2ccc(Cc3ccncc3)cc2)c1` it is > 26 µM (inactive). For `O=C(NNC(=O)c1ccccc1O)c1ccc(Cl)c(S(=O)(=O)N2CCc3ccccc32)c1`, the AC50 was 27.2 µM.

With `CC1CCN(C(=O)CCNS(=O)(=O)c2ccc(Br)cc2)CC1`, the AC50 is > 26 µM (inactive). Next, `CCN(CC)c1ccc(/C=N/NC(=O)c2ccoc2C)c(O)c1`: > 26 µM (inactive). In the case of `COc1ccc(-c2c[n+]3c(n2-c2ccc(C)cc2)CCCCC3)cc1`, the AC50 was > 26 µM (inactive). The figure for `Cc1cc(N/N=C\c2ccc(Br)cc2)nc(-n2nc(C)cc2C)n1` is > 26 µM (inactive). Consider `O=C(CCC(=O)Nc1ccc(Cl)cc1Cl)N/N=C/c1ccc([N+](=O)[O-])o1`, for which the AC50 was > 26 µM (inactive). As to `CCOc1cc(/C=C2\CCC/C(=C\c3cc(Cl)c(O)c(OCC)c3)C2=O)cc(Cl)c1O`, the AC50 was 9.51 µM. The figure for `Cc1ccc(Cl)cc1N1CCN(C(=O)CSc2nnc3n2C(C)(C)Cc2ccccc2-3)CC1` is > 26 µM (inactive); for `Cc1ccc(C2CC(c3ccc(C)cc3)n3nc(N)nc3N2)cc1` (stereo not drawn) it is > 26 µM (inactive). Next, `Cn1nccc1C(=O)NC1CCCc2c1cnn2-c1ccc(F)cc1F` (stereo not drawn): > 26 µM (inactive); `COc1ccc(NC(=O)N(C)C[C@H]2Oc3c(NS(=O)(=O)c4ccc(F)cc4)cccc3C(=O)N([C@H](C)CO)C[C@@H]2C)cc1`: > 26 µM (inactive); `CCCCCCCCn1ccc(=N)cc1`: > 26 µM (inactive). Turning to `CCN(CC)c1ccc(/C=N/NC(=O)Cc2cccs2)c(O)c1`, the AC50 was > 26 µM (inactive). Next, `CCCC(=O)NC(NC(=S)Nc1ccc(N=Nc2ccccc2)cc1)C(Cl)(Cl)Cl` (stereo not drawn): > 26 µM (inactive); `CC1=NN(c2nc(-c3ccc(C)cc3)cs2)C(=O)C1N=Nc1ccc(C(N)=O)cc1` (stereo not drawn): > 26 µM (inactive). Consider `C/C(=N\Nc1nc(C)cc(-c2ccccc2)n1)c1ccc(F)cc1`, for which the AC50 is > 26 µM (inactive). The figure for `O=C(C1=C[C@@H](c2ccc(C(F)(F)F)cc2)C[C@@H](OCCCCO)O1)N1CCN(Cc2ccccc2)CC1` is > 26 µM (inactive); for `CCn1c(C)nc2cc(C(=O)N/N=C/c3cccc(O)c3O)ccc21` it is > 26 µM (inactive); for `Cc1ccc(NC(=O)COc2ccc(N(C)C(=O)C(C)(C)C)cc2)cc1S(=O)(=O)N1CCCCC1` it is > 26 µM (inactive). Next, `O=C(COC(=O)c1cn(-c2ccccc2)nc1-c1ccccc1)c1cccc([N+](=O)[O-])c1`: > 26 µM (inactive); `C/C(=N\NC(=O)c1nnn(-c2nonc2N)c1-c1ccccc1)c1ccccc1O`: > 26 µM (inactive); `CCN(CC)c1ccc(C(=O)N/N=C/c2ccccc2OC(F)F)cc1`: > 26 µM (inactive). The figure for `Cc1ccc(C(C)C)c(OCc2nn(CC(=O)c3ccc(OC(F)F)cc3)c3[n+]2CCCCC3)c1` is > 26 µM (inactive); for `C/C(=N\Nc1nc(C)cc(-c2ccccc2)n1)c1ccc(O)cc1` it is > 26 µM (inactive).

`N=c1ccn(CC(=O)c2ccc(-c3ccccc3)cc2)cc1`: the AC50 was > 26 µM (inactive). The figure for `O=C(N/N=C/c1ccccc1O)c1ccc2c(c1)OCO2` is > 26 µM (inactive). Next, `CCCCCCCC(=O)Nc1ccc(C(=O)N/N=C/c2cccc([N+](=O)[O-])c2)cc1`: > 26 µM (inactive); `CCn1c(-c2ccc(N(C)C)cc2)nc2ccccc21`: > 26 µM (inactive). The figure for `CC1=C/C(=N\OS(=O)(=O)c2ccccc2)C(C)=CC1=O` is > 26 µM (inactive). Consider `COc1cc(/C=C2\CC(C(C)(C)C)C/C(=C\c3cc(OC)c(OC)c(OC)c3)C2=O)cc(OC)c1OC` (stereo not drawn), for which the AC50 is > 26 µM (inactive). In the case of `O=C(Nc1nc2ccc(F)cc2s1)c1ccccn1`, the AC50 was > 26 µM (inactive). The figure for `O=C(Nc1ccc(Cl)cc1)Nc1ccc(N2CCCC2)c(S(=O)(=O)Nc2ccccc2Cl)c1` is > 26 µM (inactive); for `O=c1c2ccccc2nc(COc2ccccc2)n1/N=C/c1ccc(O)cc1O` it is > 26 µM (inactive).

Take `Cc1ccc(C)c(-c2csc(NC(=O)C3=COCCO3)n2)c1`: the AC50 is > 26 µM (inactive).

`Cc1ccc(S(=O)(=O)Nc2ccccc2N(C)S(=O)(=O)c2ccc(C)cc2)cc1`: the AC50 is > 26 µM (inactive). Next, `COc1ccc(NS(=O)(=O)c2ccc(N3CCCCC3)c(N)c2)cc1`: > 26 µM (inactive); `COc1ccc(OC)c2[nH]c(C(=O)N/N=C/c3ccccc3O)cc12`: > 26 µM (inactive); `COc1ccc2nc3cc(Cl)ccc3c(Nc3cc(CN4CCCC4)c(O)c(CN4CCCC4)c3)c2n1`: > 26 µM (inactive).

Regarding `COc1cc2ccccc2cc1C(=O)Nc1sc2c(c1C(N)=O)CCN(C(C)C)C2`, the AC50 was 9.32 µM. Next, `CCOC(=O)c1cnc(-n2nc(C)cc2C)nc1NC1CCCC1`: > 26 µM (inactive); `O=[N+]([O-])c1ccc(O)c(-c2cc(C(F)(F)F)nc(-c3ccccc3)n2)c1`: > 26 µM (inactive). The figure for `CCOC(=O)c1c(NC(=O)C[n+]2ccc(Cc3ccccc3)cc2)sc(C)c1C` is > 26 µM (inactive); for `CC1CCC(C(C)C)C(OC(=O)Cn2c(-c3ccc(Cl)cc3)[n+](C)c3ccccc32)C1` (stereo not drawn) it is > 26 µM (inactive); for `CCCCCCc1cc2cc(-c3nnc(-c4ccccc4)o3)c(=O)oc2cc1O` it is > 26 µM (inactive). With `O=C(CCCc1nc(-c2ccc(Cl)cc2)no1)NC1CCCC1`, the AC50 is > 12 µM (inactive). `CCCCCCc1cc2cc(C(=O)Nc3ccccc3)c(=O)oc2cc1O`: the AC50 is > 26 µM (inactive).

`CCCCCCC[N+](CC)(CC)CCCCc1ccc(Cl)cc1`: the AC50 is > 26 µM (inactive). As to `Nc1nc(-c2ccccn2)nc(N)c1Cc1ccc(Cl)cc1Cl`, the AC50 is > 26 µM (inactive). Turning to `FC(F)(F)c1ccccc1NC(=S)N1CCN(Cc2ccc3c(c2)OCO3)CC1`, the AC50 is > 26 µM (inactive).

For the molecule `COc1cc(Cl)c(NC2=CC(=O)C(=O)c3ccccc32)c(OC)c1`, the AC50 was > 26 µM (inactive).

Usually AC50 stands for the concentration giving half of the maximal activity seen.
